In patent publication US20180338899A1, “INHIBITORS FOR METHYLATION-RELATED ENZYMES HAT1 AND KAT8” (priority 2015, published 2018):
Where a name gives a salt, the structure may show the parent alone. Read-outs that look alike come from different tables or passages of the source.

Key:
[1] = target: T1, KAT8 (Homo sapiens, UniProt Q9H7Z6); assay: FDA library screening (analysis service PLEXERA) and binding strength, KAT8
T1 sequence (Q9H7Z6 1-458): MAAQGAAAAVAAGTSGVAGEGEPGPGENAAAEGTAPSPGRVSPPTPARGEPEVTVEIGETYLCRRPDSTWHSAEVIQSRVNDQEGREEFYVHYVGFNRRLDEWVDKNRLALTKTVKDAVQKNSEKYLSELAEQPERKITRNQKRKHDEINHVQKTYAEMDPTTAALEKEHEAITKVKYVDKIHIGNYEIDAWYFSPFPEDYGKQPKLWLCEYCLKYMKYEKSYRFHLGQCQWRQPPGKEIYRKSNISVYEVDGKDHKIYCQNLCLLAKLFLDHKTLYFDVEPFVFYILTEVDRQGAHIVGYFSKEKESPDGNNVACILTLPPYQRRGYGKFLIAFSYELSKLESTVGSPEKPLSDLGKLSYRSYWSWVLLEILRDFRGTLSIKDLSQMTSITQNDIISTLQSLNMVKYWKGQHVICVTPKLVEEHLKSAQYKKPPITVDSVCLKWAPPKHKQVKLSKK
Text: (§1) Medicines containing each as an active ingredient (provided that each medicine has an indication other than that for malignant tumors) have already been commercially available.
(§2) Meanwhile, medicines containing each as an active ingredient (provided that each medicine has an indication other than that for malignant tumors) have already been commercially available.

[2] = cited from earlier work
[3] = target: T1, KAT8; details: stated as property of the compound, no test described; cited from earlier work
[4] = test system: HLF cells; assay: Cell death and cell growth suppression rate of HLF cells, 3D cell culture spheroid counter Cell3iMager; format: cell-based; details: high concentration (30 μM)
Procedure: In addition, chlorpropamide or MG149 was added to HLF cells on culture plates and the cell death and cell growth suppression rate were inspected using a 3D cell culture spheroid counter Cell 3 i Mager (SCREEN, Inc., Kyoto). […] The rows indicate the days of culture and the columns show the kinds and concentrations of the compounds. The concentrations of chlorpropamide were represented in a ratio when the maximum effective blood concentration was set to 1. As the maximum effective blood concentration of chlorpropamide was used 30 µg/ml (which is a value described in the interview form of a commercially available medicine containing chlorpropamide as an active ingredient).

[5] = target: T2, HAT1 (Homo sapiens, UniProt O14929); details: stated as property of the compound, no test described; cited from earlier work
T2 sequence (O14929 1-419): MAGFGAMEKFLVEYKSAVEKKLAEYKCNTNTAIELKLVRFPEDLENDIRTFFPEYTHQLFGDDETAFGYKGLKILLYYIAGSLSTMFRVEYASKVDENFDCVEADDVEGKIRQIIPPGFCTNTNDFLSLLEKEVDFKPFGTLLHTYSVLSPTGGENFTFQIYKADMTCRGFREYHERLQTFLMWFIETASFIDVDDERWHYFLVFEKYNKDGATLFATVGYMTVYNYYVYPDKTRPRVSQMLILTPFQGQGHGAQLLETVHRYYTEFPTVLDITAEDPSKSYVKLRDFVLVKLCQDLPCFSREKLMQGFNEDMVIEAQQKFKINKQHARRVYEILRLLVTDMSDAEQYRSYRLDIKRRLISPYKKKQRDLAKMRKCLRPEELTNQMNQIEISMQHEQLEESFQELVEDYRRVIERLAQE

[6] = target: T2, HAT1; assay: FDA library screening (analysis service PLEXERA) and binding strength, HAT1
Text: as §1, §2

[7] = test system: HAT1; assay: Inhibitory effect of low-molecular-weight compounds on expression of HAT1 by RT-PCR; format: cell-based; details: FIG. 6
[8] = test system: KAT8; assay: Inhibitory effect of low-molecular-weight compounds on expression of KAT8 by RT-PCR; format: cell-based; details: FIG. 6
[9] = interview form of commercially available medicine
[10] = interview form, given as percent (external preparation / solution concentration)

Compound | inhibition of function of KAT8 [1] | maximum effective blood concentration (Cmax) [2, 9] | inhibition of function of HAT1 [6] | other results
COCCc1ccc(OCC(O)CNC(C)C)cc1.COCCc1ccc(OCC(O)CNC(C)C)cc1.O=C(O)C(O)C(O)C(=O)O (racemic) [metoprolol-(+,−)(+)-tartrate salt] | inhibited only KAT8 | 0.077 µg/mL |  | 
CCCCCCCc1ccc(CCc2cccc(O)c2C(=O)O)cc1 [MG149] |  |  |  | inhibition of KAT8 [3]: inhibits only KAT8; cell growth suppression effect [4]: failed to elicit a sufficient cell growth suppression effect; inhibition of HAT1 [5]: does not inhibit HAT1
C=CCc1ccccc1OCC(O)CNC(C)C (centres unmarked) [alprenolol hydrochloride] | inhibited function of both HAT1 and KAT8 | 0.12 µg/mL | inhibited function of both HAT1 and KAT8 | 
NCC[C@H](O)C(=O)N[C@@H]1C[C@H](N)[C@@H](O[C@H]2O[C@H](CN)[C@@H](O)[C@H](O)[C@H]2O)[C@H](O)[C@H]1O[C@H]1O[C@H](CO)[C@@H](O)[C@H](N)[C@H]1O [amikacin hydrate] | inhibited function of both HAT1 and KAT8 | 25 µg/mL | inhibited function of both HAT1 and KAT8 | 
Cc1cc(=O)n(-c2ccccc2)n1C [antipyrine] |  | 50 µg/mL | inhibited only HAT1 | 
C=C1[C@@H]2CC[C@H]3[C@]4(C)C[C@H](O[C@@H]5O[C@H](CO)[C@@H](OS(=O)(=O)O)[C@H](OS(=O)(=O)O)[C@H]5OC(=O)CC(C)C)C[C@@H](C(=O)O)[C@H]4CC[C@]3(C2)[C@@H]1O [atractyloside potassium salt] |  | 60 µg/mL | inhibited only HAT1 | 
CCc1oc2ccccc2c1C(=O)c1cc(Br)c(O)c(Br)c1 [benzbromarone] |  | 3.1 µg/mL | inhibited only HAT1 | 
CC(C)NCC(O)COc1ccc(CCOCC2CC2)cc1 (centres unmarked) [betaxolol hydrochloride] | inhibited function of both HAT1 and KAT8 | 0.0418 µg/mL | inhibited function of both HAT1 and KAT8 | 
CC(C)NCC(O)COc1ccc(COCCOC(C)C)cc1 (centres unmarked) [bisoprolol fumarate] | inhibited function of both HAT1 and KAT8 | 0.1 µg/mL | inhibited function of both HAT1 and KAT8 | 
CCCCNc1cc(C(=O)O)cc(S(N)(=O)=O)c1Oc1ccccc1 [bumetanide] | inhibited only KAT8 | 0.882 µg/mL |  | 
C=CC1=C(C(=O)O)N2C(=O)[C@@H](NC(=O)/C(=N\OCC(=O)O)c3csc(N)n3)[C@H]2SC1 [cefixime] |  | 3.97 µg/mL |  | 
CCN1CCN(C(=O)N[C@@H](C(=O)N[C@@H]2C(=O)N3C(C(=O)O)=C(CSc4nnnn4C)CS[C@H]23)c2ccc(O)cc2)C(=O)C1=O [cefoperazone dihydrate] |  | 1,000 ng/ml |  | 
CCN(CC)C(=O)Nc1ccc(OCC(O)CNC(C)(C)C)c(C(C)=O)c1 (centres unmarked) [celiprolol hydrochloride] | inhibited function of both HAT1 and KAT8 | 0.3 µg/mL | inhibited function of both HAT1 and KAT8 | 
CN(CCCCCCCCCCN(C)C(=O)Oc1cccc([N+](C)(C)C)c1)C(=O)Oc1cccc([N+](C)(C)C)c1 [demecarium bromide] | inhibited function of both HAT1 and KAT8 |  | inhibited function of both HAT1 and KAT8 | 
COC(=O)CCc1ccc(OCC(O)CNC(C)C)cc1 (centres unmarked) [esmolol hydrochloride] |  | 2.7 µg/mL | inhibited only HAT1 | 
CCc1cccc(CC)c1NC(=O)CN(CC(=O)O)CC(=O)O [etifenin] |  | 5.0 µg/mL | inhibited only HAT1 | 
CCC(=O)O[C@@H](O[P@](=O)(CCCCc1ccccc1)CC(=O)N1C[C@H](C2CCCCC2)C[C@H]1C(=O)O)C(C)C [fosinopril] |  | 4 µg/mL |  | 
C[N+]1(C)CCC(OC(=O)C(O)(c2ccccc2)C2CCCC2)C1 (centres unmarked) [glycopyrrolate] | inhibited only KAT8 |  |  | 
C[C@@H](O)[C@H]1C(=O)N2C(C(=O)O)=C(SCCN=CN)C[C@H]12 [imipenem] |  | 82.8 µg/mL |  | 
O=C([O-])c1ccccc1-c1c2cc(Br)c(=O)cc-2oc2[c]([Hg+])c([O-])c(Br)cc12.[Na+].[Na+].[OH-] [merbromin] | inhibited only KAT8 |  |  | maximum effective blood concentration (Cmax) [2, 10]: 2%
Cc1cc(C(C)(C)CC(C)(C)C)ccc1OCCOCC[N+](C)(C)Cc1ccccc1.[Cl-] [methylbenzethonium chloride] | inhibited function of both HAT1 and KAT8 | 1.93 µg/mL | inhibited function of both HAT1 and KAT8 | inhibitory effect on expression of HAT1 [7]: inhibitory effect; inhibitory effect on expression of KAT8 [8]: inhibitory effect; maximum effective blood concentration (Cmax) [2, 10]: 0.3%
CO[C@]12C[C@@H](COC(=O)c3cncc(Br)c3)CN(C)[C@@H]1Cc1cn(C)c3cccc2c13 [nicergoline] |  | 96 ng eq./mL | inhibited only HAT1 | 
CN(C(=O)CN(CCO)CC(=O)N(C)C(C)(C)Cc1ccccc1)C(C)(C)Cc1ccccc1 [oxethazaine] |  | 1 µg/mL | inhibited only HAT1 | 
C=CCOc1ccccc1OCC(O)CNC(C)C (centres unmarked) [oxprenolol hydrochloride] | inhibited function of both HAT1 and KAT8 | 0.3 µg/mL | inhibited function of both HAT1 and KAT8 | maximum effective blood concentration ([2]; commercially available medicine): 30.18 µg/µL
CCCN1C[C@H](CSC)C[C@@H]2c3cccc4[nH]cc(c34)C[C@H]21 [pergolide mesylate] | inhibited only KAT8 | 0.026 µg/mL |  | 
CC(N/C(=N\C#N)Nc1ccncc1)C(C)(C)C (centres unmarked) [pinacidil] |  | 2.5 µg/mL | inhibited only HAT1 | 
CC(C(=O)O)c1ccc(C(=O)c2cccs2)cc1 (centres unmarked) [suprofen] |  |  | inhibited only HAT1 | maximum effective blood concentration (Cmax) [2, 10]: 1%
CN[C@H](CC(C)C)C(=O)N[C@H]1C(=O)N[C@@H](CC(N)=O)C(=O)N[C@H]2C(=O)N[C@H]3C(=O)N[C@H](C(=O)N[C@H](C(=O)O)c4cc(O)cc(O)c4-c4cc3ccc4O)[C@H](O)c3ccc(c(Cl)c3)Oc3cc2cc(c3O[C@@H]2O[C@H](CO)[C@@H](O)[C@H](O)[C@H]2O[C@H]2C[C@](C)(N)[C@H](O)[C@H](C)O2)Oc2ccc(cc2Cl)[C@H]1O [vancomycin hydrochloride] | inhibited function of both HAT1 and KAT8 | 30 µg/mL | inhibited function of both HAT1 and KAT8 | 
clofilium tosylate |  | 0.11 µg/mL | inhibited only HAT1 | 
colistin sulfate | inhibited function of both HAT1 and KAT8 | 4.4 µg/mL | inhibited function of both HAT1 and KAT8 | inhibitory effect on expression of HAT1 [7]: inhibitory effect; inhibitory effect on expression of KAT8 [8]: inhibitory effect
